Experiment: Human HepG2 cell viability assay in 384 well format
Type: toxicity, cell-based
Set-up: dose 125 nL, time 70.5 hour; concentration not given beside the values
Conditions: HepG2 cells, read-out: Inhibition

Structure (SMILES) | cytotoxicity at 70.5 h [%]
c1cnc(CC2COCCN(C3CCCCC3)C2)cn1 (stereo unspecified) | 1.48
Cc1cccc(CN2CC3C[C@]3(NC(=O)c3ccco3)C2)n1 (stereo partly specified) | -4.13
Cc1cnn(CCNC(C)c2nnc(-c3ccccc3)o2)c1 (stereo unspecified) | -7.05
O=C(CC1COCCN1)N1CCC(N2CCc3ccccc3C2)CC1 (stereo unspecified) | 7.65
Cc1ccc(Br)c(S(=O)(=O)NCc2cnn(C)c2)c1 | -5.3
CN(Cc1cccnc1)CC1CCCN1c1cccnn1 (stereo unspecified) | 13.1
COc1ccc(CN2C[C@@H]3CN(CCO)C[C@@H]3C2=O)cc1 | -11.6
C[C@H](O)c1cnn(-c2ccccc2)c1 | -1.87
CSCc1cc(C(=O)NC2(C#N)CCSC2)ccc1F (stereo unspecified) | -8.71
CCOc1ccc(Cl)c(C(=O)NC(Cc2ccccc2)C(N)=O)n1 (stereo unspecified) | -1.23
C[C@@H]1CN(C(=O)CCc2nncn2C)C[C@@]1(O)C1CCC1 | -2.96
Cc1cc(N2CCC3(CCC(=O)N(CC4CC4)C3)CC2)nc(N)n1 | -9.89
COc1ccc(C(C)NC(=O)Nc2nnc(C)s2)c(OC)c1 (stereo unspecified) | -4.87
Cc1c[nH]c(C(=O)N2CCCC2c2ccc(C(=O)N3CCSCC3)s2)n1 (stereo unspecified) | -11.4
Cc1cnn(C2CCCN(C(=O)CCc3nccs3)C2)c1 (stereo unspecified) | 17.1
Cc1ccccc1CCC(=O)N1CCCC(c2cc(C(N)=O)[nH]n2)C1 (stereo unspecified) | 6.15
COCC(=O)N1CCCn2c(CN3CCOCC3)nnc2C1 | 2.56
COc1ccc(/C=C/CN2CCN(c3nccnc3C)CC2)cc1 | -5.85
OC(CN1CCN(Cc2ccccc2)CC1)C1CC1 (stereo unspecified) | -10.4
COc1nn(C)c2c1CCCN(C(=O)c1ccccc1F)C2 | -95.9
CN(C(=O)Nc1cccc(C#N)c1)C1CCN(c2ccccn2)CC1 | -8.89

Structure (SMILES) | cytotoxicity at 70.5 h [%]
Cc1ccc(CNC(=O)CN2CCOC(Cn3cccn3)C2)s1 (stereo unspecified) | -4.52
Cn1c(CCNC(=O)C2CCCN(C3CCOCC3)C2)n[nH]c1=O (stereo unspecified) | -1.23
NC(=O)N1CC[C@H](O)[C@@H]1Cc1cccnc1 | -12.6
Cc1ncc(CN2CCCC2c2ccc(C(=O)NCc3ccoc3)s2)s1 (stereo unspecified) | -0.861
CN1CCCC(C(=O)N2CCC(Oc3ccc(C#N)cn3)CC2)C1 (stereo unspecified) | -5.58
Cc1ccccc1S(=O)(=O)N[C@@H]1CC[C@@H](N2CCNC(=O)C2)[C@@H]1O | -4.42
Cc1nc[nH]c1CN1CCn2nc(CN3CC[C@H](F)C3)cc2C1 | -8.01
Cn1ccnc1CNC(=O)N(CCCO)C1CCc2ccccc21 (stereo unspecified) | -4.97
Cn1nc(C#N)c2c1CN(C(=O)c1ccnnc1)CCC2 | 0.526
Cc1ccc(F)cc1S(=O)(=O)Nc1cnc(N2CCCC2)nc1 | -9.37
O=C(c1cc(-c2ccco2)cs1)N1CCOCC1 | -0.411
CCOCCN1CCN(Cc2nc(CC(C)C)no2)CC1 | 1.47
O=c1c(S(=O)(=O)N2CCCCC2)cccn1Cc1ccccc1Cl | -1.51
CCOCCC1(CNC(=O)c2ccc(C)nc2)CCCC1 | 0.601
Cc1nc(CSCCC(=O)NCCNC(=O)OC(C)(C)C)cs1 | 3.27
Cc1cc(S(=O)(=O)N2CCc3ccc(F)cc32)cc(C(=O)O)c1C | 6.28
Cc1ccc(C(C)N(C)C(=O)c2ccc(=O)n(C)c2)s1 (stereo unspecified) | -0.24
CCN(C)c1ncnc2c1CCN(Cc1ccoc1)CC2 | -20.5
CC1=Nc2c(c(=O)[nH]n2C(C)C)C(c2ccc3c(c2)n(C)c(=O)n3C)S1 (stereo unspecified) | -9
Cc1cc(NC(=O)NCCc2ccc(S(N)(=O)=O)cc2)n(C)n1 | -6.71
CCOc1ccccc1C(CC(=O)Nc1ccncc1)NC(C)=O (stereo unspecified) | -7.74

Structure (SMILES) | cytotoxicity at 70.5 h [%]
CN(C)c1ccc(C(=O)N2CCCC2c2cnn(C)c2)cn1 (stereo unspecified) | -2.8
CCCN1CC2(CCN(c3ccc(C(C)=O)cn3)CC2)CC1C(=O)O (stereo unspecified) | -9.66
Cc1cccnc1CCNC(=O)[C@@]12CNC[C@@H]1CN(S(C)(=O)=O)C2 | -1.74
COCCN1CCOCC12CCN(c1cnccn1)CC2 | -6.94
OC(CN1CCC(c2ccn[nH]2)CC1)c1ccc(F)cc1F (stereo unspecified) | -5.74
CC(c1ccccn1)N(C)Cc1ccc(-n2ccnc2)cc1 (stereo unspecified) | 1.45
COc1cc(C(=O)NCCc2ccc(Cl)cc2)on1 | 0.265
O=C(Cc1csc(-c2ccc(Cl)cc2)n1)NC(C(=O)O)c1ccccc1 (stereo unspecified) | -9.96
Cc1nc(CN(C)C2CCN(CCc3ccc4c(c3)CCO4)C2)no1 (stereo unspecified) | 1.48
Cc1cc(N)nc(C2(C)CCCN2C(=O)c2cnccn2)n1 (stereo unspecified) | 4.65
CCS(=O)(=O)c1ccccc1C(=O)NCc1ccnc(N(C)C)c1 | -11.2
O=C(NCC1(O)COCCN(Cc2cccc(O)c2)C1)c1cnccn1 (stereo unspecified) | -3.85
O=C1CC(c2ccccc2)C2(CCN(Cc3ccccn3)CC2)N1 (stereo unspecified) | -7.79
CS(=O)(=O)N1CCCC1c1cccc(Nc2nccs2)n1 (stereo unspecified) | 28.9
CC(=O)Nc1ncc(S(=O)(=O)Nc2ccc(C)cc2)s1 | -1.08
C[C@H](c1ccc(F)cc1)n1c(C2CCN(C)CC2)n[nH]c1=O | 19.4
CC(NCc1ccc(F)cc1)c1ccc(OCC(=O)NC2CC2)cc1 (stereo unspecified) | 25.6
CNC(=O)CN1CCC(NC(=O)CC(C)CCc2ccccc2)CC1 (stereo unspecified) | 12.1
CC(C)CNC(=O)c1cn(C(C)C)cc2c(=O)[nH]nc1-2 | -7.94
Cc1cccc(N(CC(=O)N2CCCCC2)Cc2nc(=O)[nH][nH]2)c1 | -0.474
CN(Cc1ccon1)c1nc(-c2ccccn2)nc2c1CCNCC2 | 12.3

Structure (SMILES) | cytotoxicity at 70.5 h [%]
O=C(Nc1ccccc1)C1=CC2(CCNCC2)c2ccccc21 | 3.63
O=C(NC1CC1)[C@H]1C[C@H]2OCC[C@H]2N(Cc2ccc3ccccc3n2)C1 | -4.59
CC[C@@H]1N(CC2CCC2)CCC[C@]12CCC(=O)N2Cc1ccncc1 | -4.74
O=C(NC[C@H]1C[C@@H]2CCN1C[C@@H]2CN1CCOCC1)Nc1ccsc1 | -12.4
CCNc1cc2c(nn1)CCN(C(=O)Cc1c(C)noc1C)C2 | 4.3
CC(C)c1nc(C(=O)N2CCOCC2CC(=O)c2ccco2)cs1 (stereo unspecified) | -2.9
COc1cc(Cl)c(C)cc1NC(=O)CNc1ccn(CC(N)=O)n1 | -7.27
CCC(CC)c1cc(CNC(=O)N2CCCC(c3ncc[nH]3)C2)on1 (stereo unspecified) | 0.2
Cc1ccc(C(C(=O)NC(C)(C)CN2CCCC2)N(C)C)cc1 (stereo unspecified) | 45
CSCC(C)(O)CNC(=O)c1cc(Cl)ccc1Cl (stereo unspecified) | -7.98
COc1ccc(-c2nc(CN3CC(n4cccn4)C3)no2)cc1 | -5.24
COCc1cnc2n1CCN(C(=O)c1cc3ccccc3o1)C2C (stereo unspecified) | 18.8
CC(=O)NC(c1cc(F)ccc1F)C1CC1 (stereo unspecified) | -3.82
CC(NC(=O)c1ccoc1)C(=O)N(C)Cc1ccc(O)cc1 (stereo unspecified) | 3.58
CCCOc1ccccc1CCCNc1ncnc2oc(C)nc12 | -7.16
COCc1noc(C2(c3ccc(OC)cc3)CCOCC2)n1 | -9.29
N[C@H]1CN(S(=O)(=O)N2CCCCCC2)C[C@@H]1c1ccccc1 | 20
O=C(C1CCSCC1)N1CCC2(CC1)COC(COCC1CC1)C2 (stereo unspecified) | -11.3

— ChEMBL document CHEMBL3507680, “University of Dundee, Gates Library screen for HepG2 cell viability”
